Data as given in ChEMBL document CHEMBL1201862, “PubChem BioAssay data set” (2004).
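These data come from cells grown in 96-well plates and exposed to compound for 48 hours at five concentrations. GI50 marks 50% less growth.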 Active and inactive are the calls of the source. No stated cut-off is given here; in the data, active = GI50 up to about 1.1 µM and inactive = higher.

Tests used:
Assay in all cases: inhibition of tumour cell growth, NCI panel, 48 h
SN12C = system: SN12C
786-0 = system: 786-0
NCI-H522 = system: NCI-H522
A498 = system: A498
NCI-H460 = system: NCI-H460
MDA-N = system: MDA-N
KM12 = system: KM12
IGROV-1 = system: IGROV-1
COLO 205 = system: COLO 205
UACC-257 = system: UACC-257
SW-620 = system: SW-620
HCC 2998 = system: HCC 2998
PC-3 = system: PC-3
SK-MEL-5 = system: SK-MEL-5
SNB-19 = system: SNB-19
HOP-92 = system: HOP-92
MDA-MB-231 = system: MDA-MB-231
ACHN = system: ACHN
MOLT-4 = system: MOLT-4
SNB-75 = system: SNB-75
DU-145 = system: DU-145
HT-29 = system: HT-29
SK-OV-3 = system: SK-OV-3
SR = system: SR
SK-MEL-2 = system: SK-MEL-2
NCI/ADR-RES = system: NCI/ADR-RES
OVCAR-3 = system: OVCAR-3
Hs-578T = system: Hs-578T
NCI-H23 = system: NCI-H23
CCRF-CEM = system: CCRF-CEM
EKVX = system: EKVX
CAKI-1 = system: CAKI-1
Malme-3M = system: Malme-3M
SF-539 = system: SF-539
A549 = system: A549
SK-MEL-28 = system: SK-MEL-28
UO-31 = system: UO-31
BT-549 = system: BT-549
SF-295 = system: SF-295
HCT-15 = system: HCT-15
HOP-62 = system: HOP-62
MDA-MB-435 = system: MDA-MB-435
OVCAR-5 = system: OVCAR-5
TK-10 = system: TK-10
NCI-H226 = system: NCI-H226
LOX IMVI = system: LOX IMVI
U-251 = system: U-251
SF-268 = system: SF-268
M14 = system: M14
HCT-116 = system: HCT-116
OVCAR-4 = system: OVCAR-4
T47D = system: T47D
RXF 393 = system: RXF 393
UACC-62 = system: UACC-62
MCF7 = system: MCF7
K562 = system: K562
OVCAR-8 = system: OVCAR-8
HL-60 = system: HL-60

CC(C)=CCC/C(C)=C/CC/C(C)=C/CC/C(C)=C/CC/C(C)=C\CC/C(C)=C/CC/C(C)=C/CC/C(C)=C/Cc1cc(O)ccc1O
GI50 (SN12C): 5.31 µM (inactive) | GI50 (786-0): 1.45 µM (inactive) | GI50 (NCI-H522): 0.505 µM (active) | GI50 (A498): 0.993 µM (active) | GI50 (NCI-H460): 2.57 µM (inactive) | GI50 (MDA-N): 0.236 µM (active) | GI50 (KM12): 0.632 µM (active) | GI50 (IGROV-1): 0.323 µM (active) | GI50 (COLO 205): 0.387 µM (active) | GI50 (UACC-257): 0.387 µM (active) | GI50 (SW-620): 2.28 µM (inactive) | GI50 (HCC 2998): 4.99 µM (inactive) | GI50 (PC-3): 0.689 µM (active) | GI50 (SK-MEL-5): 0.294 µM (active) | GI50 (SNB-19): 10 µM (inactive) | GI50 (HOP-92): 8.49 µM (inactive) | GI50 (MDA-MB-231): 20.6 µM (inactive) | GI50 (ACHN): 4.75 µM (inactive) | GI50 (MOLT-4): 1.93 µM (inactive) | GI50 (SNB-75): 3.41 µM (inactive) | GI50 (DU-145): 19.4 µM (inactive) | GI50 (HT-29): 1.11 µM (active) | GI50 (SK-OV-3): 4.06 µM (inactive) | GI50 (SR): 0.43 µM (active) | GI50 (SK-MEL-2): 0.682 µM (active) | GI50 (NCI/ADR-RES): 0.459 µM (active) | GI50 (OVCAR-3): 0.573 µM (active) | GI50 (Hs-578T): 3.33 µM (inactive) | GI50 (NCI-H23): 0.361 µM (active) | GI50 (CCRF-CEM): 0.955 µM (active) | GI50 (EKVX): 2.31 µM (inactive) | GI50 (CAKI-1): 0.239 µM (active) | GI50 (Malme-3M): 0.292 µM (active) | GI50 (SF-539): 1.33 µM (inactive) | GI50 (A549): 1.33 µM (inactive) | GI50 (SK-MEL-28): 0.424 µM (active) | GI50 (UO-31): 1.72 µM (inactive) | GI50 (BT-549): 1.98 µM (inactive) | GI50 (SF-295): 1.45 µM (inactive) | GI50 (HCT-15): 1.69 µM | GI50 (HOP-62): 6.03 µM (inactive) | GI50 (MDA-MB-435): 0.39 µM (active) | GI50 (OVCAR-5): 9.27 µM (inactive) | GI50 (TK-10): 1.41 µM (inactive) | GI50 (NCI-H226): 2.02 µM (inactive) | GI50 (LOX IMVI): 0.966 µM (active) | GI50 (U-251): 1.85 µM (inactive) | GI50 (SF-268): 2.01 µM (inactive) | GI50 (M14): 0.213 µM (active) | GI50 (HCT-116): 0.561 µM (active) | GI50 (OVCAR-4): 1.32 µM (inactive) | GI50 (T47D): 1.24 µM (inactive) | GI50 (RXF 393): 0.344 µM (active) | GI50 (UACC-62): 0.157 µM (active) | GI50 (MCF7): 0.126 µM (active) | GI50 (K562): 3.18 µM (inactive) | GI50 (OVCAR-8): 1.15 µM (inactive)

Nc1nc(N)nc(-c2cnc3ccccc3c2)n1
GI50 (SN12C): > 100 µM (inactive) | GI50 (786-0): > 100 µM (inactive) | GI50 (NCI-H522): > 100 µM (inactive) | GI50 (A498): > 100 µM (inactive) | GI50 (NCI-H460): > 100 µM (inactive) | GI50 (MDA-N): > 100 µM (inactive) | GI50 (KM12): > 100 µM (inactive) | GI50 (IGROV-1): 58.6 µM (inactive) | GI50 (COLO 205): > 100 µM (inactive) | GI50 (UACC-257): > 100 µM (inactive) | GI50 (SW-620): > 100 µM (inactive) | GI50 (HCC 2998): > 100 µM (inactive) | GI50 (PC-3): > 100 µM (inactive) | GI50 (SNB-19): > 100 µM (inactive) | GI50 (HOP-92): 73.5 µM (inactive) | GI50 (MDA-MB-231): 86.7 µM (inactive) | GI50 (ACHN): > 100 µM (inactive) | GI50 (MOLT-4): 20.7 µM (inactive) | GI50 (SNB-75): 85.7 µM (inactive) | GI50 (DU-145): > 100 µM (inactive) | GI50 (SK-OV-3): 87.9 µM (inactive) | GI50 (SR): 37 µM (inactive) | GI50 (SK-MEL-2): > 100 µM (inactive) | GI50 (NCI/ADR-RES): > 100 µM (inactive) | GI50 (OVCAR-3): > 100 µM (inactive) | GI50 (Hs-578T): > 100 µM (inactive) | GI50 (NCI-H23): > 100 µM (inactive) | GI50 (CCRF-CEM): 13.4 µM (inactive) | GI50 (EKVX): 38.4 µM (inactive) | GI50 (CAKI-1): > 100 µM (inactive) | GI50 (Malme-3M): > 100 µM (inactive) | GI50 (SF-539): > 100 µM (inactive) | GI50 (A549): > 100 µM (inactive) | GI50 (SK-MEL-28): > 100 µM (inactive) | GI50 (UO-31): > 100 µM (inactive) | GI50 (BT-549): > 100 µM (inactive) | GI50 (SF-295): > 100 µM (inactive) | GI50 (HCT-15): > 100 µM | GI50 (HOP-62): > 100 µM (inactive) | GI50 (MDA-MB-435): > 100 µM (inactive) | GI50 (OVCAR-5): 39.5 µM (inactive) | GI50 (TK-10): 88.9 µM (inactive) | GI50 (NCI-H226): > 100 µM (inactive) | GI50 (LOX IMVI): > 100 µM (inactive) | GI50 (U-251): > 100 µM (inactive) | GI50 (SF-268): > 100 µM (inactive) | GI50 (M14): > 100 µM (inactive) | GI50 (HCT-116): > 100 µM (inactive) | GI50 (T47D): > 100 µM (inactive) | GI50 (RXF 393): 94.2 µM (inactive) | GI50 (UACC-62): 72.1 µM (inactive) | GI50 (MCF7): > 100 µM (inactive) | GI50 (K562): > 100 µM (inactive) | GI50 (OVCAR-8): > 100 µM (inactive)

O=C(CCc1cccc(O)c1)NCCc1ccc(O)cc1
GI50 (SN12C): > 100 µM (inactive) | GI50 (786-0): > 100 µM (inactive) | GI50 (NCI-H522): 17.3 µM (inactive) | GI50 (A498): > 100 µM (inactive) | GI50 (NCI-H460): > 100 µM (inactive) | GI50 (MDA-N): > 100 µM (inactive) | GI50 (KM12): > 100 µM (inactive) | GI50 (IGROV-1): > 100 µM (inactive) | GI50 (COLO 205): > 100 µM (inactive) | GI50 (UACC-257): > 100 µM (inactive) | GI50 (PC-3): > 100 µM (inactive) | GI50 (SK-MEL-5): > 100 µM (inactive) | GI50 (SNB-19): > 100 µM (inactive) | GI50 (HOP-92): > 100 µM (inactive) | GI50 (MDA-MB-231): > 100 µM (inactive) | GI50 (ACHN): 95.9 µM (inactive) | GI50 (MOLT-4): > 100 µM (inactive) | GI50 (DU-145): > 100 µM (inactive) | GI50 (HT-29): > 100 µM (inactive) | GI50 (SK-OV-3): > 100 µM (inactive) | GI50 (SR): > 100 µM (inactive) | GI50 (SK-MEL-2): > 100 µM (inactive) | GI50 (NCI/ADR-RES): > 100 µM (inactive) | GI50 (OVCAR-3): > 100 µM (inactive) | GI50 (Hs-578T): > 100 µM (inactive) | GI50 (NCI-H23): > 100 µM (inactive) | GI50 (CCRF-CEM): > 100 µM (inactive) | GI50 (EKVX): > 100 µM (inactive) | GI50 (CAKI-1): > 100 µM (inactive) | GI50 (Malme-3M): > 100 µM (inactive) | GI50 (SF-539): > 100 µM (inactive) | GI50 (A549): > 100 µM (inactive) | GI50 (SK-MEL-28): > 100 µM (inactive) | GI50 (UO-31): > 100 µM (inactive) | GI50 (BT-549): > 100 µM (inactive) | GI50 (SF-295): > 100 µM (inactive) | GI50 (HCT-15): > 100 µM | GI50 (HOP-62): > 100 µM (inactive) | GI50 (MDA-MB-435): > 100 µM (inactive) | GI50 (OVCAR-5): > 100 µM (inactive) | GI50 (TK-10): > 100 µM (inactive) | GI50 (NCI-H226): > 100 µM (inactive) | GI50 (LOX IMVI): > 100 µM (inactive) | GI50 (U-251): > 100 µM (inactive) | GI50 (SF-268): > 100 µM (inactive) | GI50 (M14): > 100 µM (inactive) | GI50 (HCT-116): > 100 µM (inactive) | GI50 (OVCAR-4): > 100 µM (inactive) | GI50 (T47D): > 100 µM (inactive) | GI50 (RXF 393): > 100 µM (inactive) | GI50 (UACC-62): > 100 µM (inactive) | GI50 (HL-60): > 100 µM (inactive) | GI50 (MCF7): > 100 µM (inactive) | GI50 (K562): > 100 µM (inactive) | GI50 (OVCAR-8): > 100 µM (inactive)
